Assay results: US3953604A, “1-(2-Substituted-chromonyloxy)-2-hydroxy-3-(substituted phenoxy)propanes” (priority 1973, dated 1976)
Values joined by “and” are separate entries in the source; they are usually repeats but may differ in a detail not shown here. Identical values can stand only once. Counter-ions that a name gives are not always drawn.

Key:
[1] = acute toxicity tests, intravenous, animals observed for one week; settings: in vivo, rat, dose is the maximum possible, limited by solubility, read-out: Therapeutic Ratio (Dose/ID50)
Experimental: Acute toxicity of compounds representative of the above Examples was determined in rats. The test compounds were administered intravenously in either 40 ml/kg of physiological saline or […] and saline. Compounds which are insoluble in saline were administered in […] and saline. Doses administered represent the maximun dose possible and are limited by solubility factors. ID50 in the table is used as defined in Example 66. Test compounds are identified by their respective Example Number, above.

[2] = system: allergic bronchial asthma; settings: in vivo; cited from earlier work
[3] = system: passive cutaneous anaphylaxis; assay: duration of antiallergic activity by the PCA test, compared directly with DSCG; type: in vivo; settings: rat; for Mean Reaction Diameters in Milimeters After 25 μ moles/kg of Test Compound: 25 μ moles/kg test compound 10 minutes before egg albumin antigen, groups of 10 animals
Experimental: (§1) The intensity of such PCA reaction is assessed by measuring the diameters of wheals which develop in the skin of the test animal. Details of the PCA test can be found in the following references: I. Motar, Life Sciences, 1:465 (1963); and B. Ogilvie, Immunology, 12:113 (1967).
The duration of antiallergic activity of compounds representative of the above examples was also determined by the PCA test described in Example 66. In each case, 25 μ moles of the test compound were administered 10 minutes before injection of the egg albumin antigen in rats. The following table reports the mean reactions diameters of wheals in milimeters for the compounds described in the above Examples and disodium cromoglycate (DSCG). In order to achieve maxium significance of results, the effect of each compound was compared directly with DSCG using groups of 10 animals selected at random from the same population.

[4] = system: passive cutaneous anaphylaxis; assay: passive cutaneous anaphylaxis test (PCA), egg albumin as the antigen: antiallergic activity; type: in vivo; settings: iv; rat; injected intravenously together with the antigen; at least 3 groups of 5 rats; read-out: ID50 (dose which reduced the diameter of the wheel by 50%)
Experimental: Compounds representative of the above examples were evaluated for antiallergic activity in the rat by the passive cutaneous anaphylaxis test (hereafter PCA), utilizing egg albumin as the antigen.
as §1
In the following table, ID50 is the dose which reduced the diameter of the wheel by 50% when injected intravenously together with the antigen. At least 3 groups of 5 rats were used to determine the ID50 for each compound tested. The reference compound utilized was disodium chromoglycate (DSCG). The test compounds are identified by their respective Example Numbers above.

| Compound | selectivity ratio at 168 h [1] | untoward side effects [2] | Mean Reaction Diameters in Milimeters After 25 μ moles/kg of DSCG ([3]; 25 μ moles/kg DSCG 10 minutes before egg albumin antigen, direct comparison with the test compound of the same line, disodium salt) | ED50 [4] | Mean Reaction Diameters in Milimeters After 25 μ moles/kg of Test Compound [3] |
| --- | --- | --- | --- | --- | --- |
| O=C(O)c1cc(=O)c2c(OCC(O)COc3cccc4oc(C(=O)O)cc(=O)c34)cccc2o1 [DSCG, 1,3-di(2-carboxy-4-oxochromon-5-yloxy)-2-hydroxy-propane disodium salt, reference compound] | > 1150 | several untoward side effects | 13.4 ± 0.3 Milimeters and 10.6 ± 0.7 Milimeters and 9.7 ± 0.3 Milimeters and 8.9 ± 0.8 Milimeters and 8.6 ± 0.3 Milimeters and 12.3 ± 0.2 Milimeters |  |  |
| O=C(O)c1cc(=O)c2c(OCC(O)COc3ccccc3)cccc2o1 (centres unmarked) [Example 4, 1-(2-Carboxychromon-5-yloxy)-2-Hydroxy-3-Phenoxypropane Sodium Salt] | > 339 |  |  | 6.25 µmol/kg | 13.0 ± 0.3 Milimeters |
| O=C(O)c1cc(=O)c2c(OCC(O)COc3ccc(Br)cc3)cccc2o1 (centres unmarked) [Example 8, 1-(2-Carboxychromon-5-yloxy)-2-Hydroxy-3-p-Bromophenoxypropane Sodium Salt] | > 40 |  |  | 6.5 µmol/kg | 6.4 ± 0.4 Milimeters |
| O=C(O)c1cc(=O)c2c(OCC(O)COc3ccc(Cl)cc3)cccc2o1 (centres unmarked) [Example 11, 1-(2-Carboxychromon-5-yloxy)-2-Hydroxy-3-p-Chlorophenoxypropane] | > 43 |  |  | 5.5 µmol/kg | 2.8 ± 0.4 Milimeters |
| COc1ccc(OCC(O)COc2cccc3oc(C(=O)O)cc(=O)c23)cc1 (centres unmarked) [Example 15, 1-(2-Carboxychromon-5-yloxy)-2-Hydroxy-3-p-Methoxyphenoxypropane Sodium Salt] | > 62 |  |  | 20 µmol/kg | 11.0 ± 0.5 Milimeters |
| Cc1ccccc1OCC(O)COc1cccc2oc(C(=O)O)cc(=O)c12 (centres unmarked) [Example 19, 1-(2-Carboxychromon-5-yloxy)-2-Hydroxy-3-o-Cresyloxypropane Sodium Salt] | > 281 |  |  | 7 µmol/kg | 10.3 ± 0.2 Milimeters |
| CCOC(=O)c1cc(=O)c2c(OCC(O)COc3ccc(C#N)cc3)cccc2o1 (centres unmarked) [Example 34, 1-(2-Carbethoxychromon-5-yloxy)-2-Hydroxy-3-p-Cyanophenoxypropane] | > 84 |  |  | 2.5 µmol/kg |  |
| N#Cc1ccc(OCC(O)COc2cccc3oc(C(=O)O)cc(=O)c23)cc1 (centres unmarked) [Example 35, 1-(2-Carboxychromon-5-yloxy)-2-Hydroxy-3-p-Cyanophenoxypropane Sodium Salt] | > 3170 |  |  | 0.75 µmol/kg | 8.9 ± 0.7 Milimeters |
| O=C(O)c1cc(=O)c2c(OCC(O)COc3ccc([N+](=O)[O-])cc3)cccc2o1 (centres unmarked) [Example 38, 1-(2-Carboxychromon-5-yloxy)-2-Hydroxy-3-p-Nitrophenoxypropane Sodium Salt] | > 173 |  |  | 3.6 µmol/kg | 11.2 ± 0.3 Milimeters |
| O=C(O)c1cc(=O)c2ccc(OCC(O)COc3ccccc3)cc2o1 (centres unmarked) [Example 41, 1-(2-Carboxychromon-7-yloxy)-2-Hydroxy-3-Phenoxypropane Sodium Salt] |  |  |  | 14 µmol/kg |  |
| CCOC(=O)c1ccc(OCC(O)COc2cccc3oc(C(=O)O)cc(=O)c23)cc1 (centres unmarked) [Example 44, 1-(2-Carboxychromon-5-yloxy)-2-Hydroxy-3-p-Carbethoxyphenoxypropane Sodium Salt] |  |  |  | 8.25 µmol/kg | 6.1 ± 0.4 Milimeters |
| CC(=O)c1c(O)cccc1OCC(O)COc1cccc(C(F)(F)F)c1 (centres unmarked) [Example 57, 1-(2-Acetyl-3-hydroxphenoxy)-2-Hydroxy-3-(m-trifluoromethylphenoxy) propane] |  |  |  |  | 8.4 ± 0.5 Milimeters |
| O=C(O)c1cc(=O)c2c(OCC(O)COc3ccc(Cl)cc3Cl)cccc2o1 (centres unmarked) [Example 62, 1-(2-Carboxychromon-5-yloxy)-2-Hydroxy-3-(2,4-dichlorophenoxy) propane Sodium Salt] |  |  |  |  | 1.3 ± 0.5 Milimeters |
| O=C(O)c1cc(=O)c2c(OCC(O)COc3ccc(F)cc3)cccc2o1 (centres unmarked) [Example 65, 1-(2-Carboxychromon-5-yloxy)-2-Hydroxy-3-(p-fluorophenoxy)propane Sodium Salt] |  |  |  |  | 12.2 ± 0.2 Milimeters |
